Experimental data published in DBAASP.
Converted amounts (≈) assume the structure as drawn. Values belong to the molecule of their own block, whether it stands above or below them.

Tests used:
Assay in all cases: ≥ marks a high value that may be exact or a test limit, other limits are often not marked, values filed in µg/mL are converted to µM
Aeromonas hydrophila = tested on: Aeromonas hydrophila
[1] = tested on: Aeromonas salmonicida NCTC 7812
Aeromonas salmonicida = tested on: Aeromonas salmonicida
[2] = tested on: Enterococcus faecalis ATCC 29212
Enterococcus faecalis = tested on: Enterococcus faecalis
[3] = tested on: Escherichia coli ATCC 25922
Escherichia coli = tested on: Escherichia coli
Klebsiella pneumoniae = tested on: Klebsiella pneumoniae
[4] = tested on: Lactococcus garvieae 00-1422
Lactococcus garvieae = tested on: Lactococcus garvieae
Pseudomonas aeruginosa = tested on: Pseudomonas aeruginosa
[5] = tested on: Shigella flexneri ATCC 12022
Shigella flexneri = tested on: Shigella flexneri
Staphylococcus aureus = tested on: Staphylococcus aureus
[6] = tested on: Streptococcus iniae 00-1425
Streptococcus iniae = tested on: Streptococcus iniae
Vibrio alginolyticus = tested on: Vibrio alginolyticus
[7] = tested on: Vibrio anguillarum ATCC 19264
[8] = tested on: Enterobacter cloacae BCRC 10401
[9] = tested on: Escherichia coli BCRC 10675
[10] = tested on: Klebsiella aerogenes BCRC 10370
[11] = tested on: Klebsiella oxytoca BCRC 13985
[12] = tested on: Listeria monocytogenes BCRC 14845
[13] = tested on: Pseudomonas aeruginosa BCRC 10944
[14] = tested on: Staphylococcus aureus BCRC 10780
[15] = tested on: Staphylococcus aureus BCRC 10781
[16] = tested on: Staphylococcus xylosus BCRC 12930
[17] = tested on: Streptococcus equinus BCRC 14729
[18] = tested on: Vibrio alginolyticus BCRC 12829
[19] = tested on: Vibrio anguillarum serotype O1
Vibrio harveyi = tested on: Vibrio harveyi
[20] = tested on: Vibrio parahaemolyticus BCRC 10806
Vibrio parahaemolyticus = tested on: Vibrio parahaemolyticus
[21] = tested on: Yersinia enterocolitica BCRC 13999
[22] = tested on: Candida albicans NBRC 1385
[23] = tested on: Escherichia coli K-12 594
Escherichia coli SPE 001 = tested on: Escherichia coli SPE 001
Escherichia coli W3110 = tested on: Escherichia coli W3110
[24] = tested on: Staphylococcus aureus ATCC 6538P
[25] = tested on: Staphylococcus aureus NBRC 100910
[26] = tested on: Staphylococcus aureus SPM 101
[27] = tested on: Staphylococcus aureus SR1550
[28] = tested on: Pseudomonas aeruginosa PAK
[29] = tested on: Streptococcus gordonii Challis DL1
[30] = tested on: Streptococcus mitis ATCC 903
[31] = tested on: Streptococcus mutans UA159
[32] = tested on: Streptococcus sanguinis NY101

MIC (Aeromonas hydrophila): 0.642 µM (≈ 1.6 µg/mL)
MIC [1]: ≥ 80.3 µM
MIC (Aeromonas salmonicida): 5.02 µM (≈ 12.5 µg/mL)
MIC [2]: 1.26 µM (≈ 3.14 µg/mL)
MIC (Enterococcus faecalis): 5.02 µM (≈ 12.5 µg/mL)
MIC [3]: 80.3 µM (≈ 200 µg/mL)
MIC (Escherichia coli): 1.24 µM (≈ 3.1 µg/mL)
MIC (Klebsiella pneumoniae): 2.53 µM (≈ 6.3 µg/mL)
MIC [4]: 20.1 µM (≈ 50 µg/mL)
MIC (Lactococcus garvieae): 1.77 µM (≈ 4.42 µg/mL)
MIC (Pseudomonas aeruginosa): 10 µM (≈ 25 µg/mL)
MIC [5]: 20.1 µM (≈ 50 µg/mL)
MIC (Shigella flexneri): 2.53 µM (≈ 6.3 µg/mL)
MIC (Staphylococcus aureus): 1.24 µM (≈ 3.1 µg/mL)
MIC [6]: 2.51 µM (≈ 6.25 µg/mL)
MIC (Streptococcus iniae): 1.24 µM (≈ 3.1 µg/mL)
MIC (Vibrio alginolyticus): 2.53 µM (≈ 6.3 µg/mL)
MIC [7]: 3.55 µM (≈ 8.85 µg/mL)
Compound: CC[C@H](C)[C@H](NC(=O)CNC(=O)[C@H](CCCN=C(N)N)NC(=O)[C@H](Cc1ccccc1)NC(=O)[C@@H](NC(=O)[C@H](Cc1cnc[nH]1)NC(=O)[C@H](Cc1cnc[nH]1)NC(=O)[C@@H](NC(=O)[C@@H](N)Cc1ccccc1)[C@@H](C)CC)[C@@H](C)CC)C(=O)N[C@H](C(=O)N[C@@H](Cc1cnc[nH]1)C(=O)N[C@@H](C)C(=O)NCC(=O)N[C@@H](CCCN=C(N)N)C(=O)N[C@@H](CO)C(=O)N[C@H](C(=O)NCC(=O)N[C@@H](CCCN=C(N)N)C(=O)N[C@@H](Cc1ccccc1)C(=O)N[C@@H](CC(C)C)C(=O)N[C@H](C(=O)NCC(=O)O)[C@@H](C)O)[C@@H](C)CC)C(C)C [FIHHIFRGIVHAGRSIGRFLTG]

MIC [8]: 7.21 µM (≈ 16 µg/mL)
MIC [9]: 7.21 µM (≈ 16 µg/mL)
MIC [10]: 7.21 µM (≈ 16 µg/mL)
MIC [11]: 7.21 µM (≈ 16 µg/mL)
MIC (Lactococcus garvieae): ≥ 57.7 µM
MIC [12]: 28.9 µM (≈ 64 µg/mL)
MIC [13]: 28.9 µM (≈ 64 µg/mL)
MIC [14]: ≥ 57.7 µM
MIC [15]: ≥ 57.7 µM
MIC [16]: 28.9 µM (≈ 64 µg/mL)
MIC [17]: ≥ 57.7 µM
MIC (Streptococcus iniae): ≥ 57.7 µM
MIC [18]: ≥ 57.7 µM
MIC (Vibrio alginolyticus): 14.4 µM (≈ 32 µg/mL)
MIC [19]: 28.9 µM (≈ 64 µg/mL)
MIC (Vibrio harveyi): 28.9 µM (≈ 64 µg/mL)
MIC [21]: ≥ 57.7 µM
Compound: CC[C@H](C)[C@H](NC(=O)[C@@H](NC(=O)[C@H](CCCCN)NC(=O)[C@H](Cc1ccc(O)cc1)NC(=O)[C@H](Cc1ccccc1)NC(=O)[C@H](CCCCN)NC(=O)[C@@H](NC(=O)[C@H](Cc1ccccc1)NC(=O)[C@H](C)NC(=O)[C@@H](NC(=O)[C@H](C)NC(=O)[C@H](C)NC(=O)[C@H](CCCCN)NC(=O)[C@@H](NC(=O)[C@H](CC(C)C)NC(=O)[C@H](C)NC(=O)[C@H](CCCCN)NC(=O)[C@H](C)NC(=O)CN)[C@@H](C)O)[C@@H](C)O)[C@@H](C)O)[C@@H](C)O)C(=O)N[C@@H](Cc1c[nH]c2ccccc12)C(=O)O [GAKALTKAATAFTKFYKTIW]
MIC [20]: ≥ 57.7 µM
MIC (Vibrio parahaemolyticus): 14.4 µM (≈ 32 µg/mL)

MIC [22]: ≥ 48.4 µM
MIC [23]: 15.1 µM (≈ 20 µg/mL)
MIC (Escherichia coli SPE 001): 12.1 µM (≈ 16 µg/mL)
MIC (Escherichia coli W3110): 12.1 µM (≈ 16 µg/mL)
MIC [24]: 1.51 µM (≈ 2 µg/mL)
MIC [25]: 12.1 µM (≈ 16 µg/mL)
MIC [26]: 0.378 µM (≈ 0.5 µg/mL)
MIC [27]: 22.7 µM (≈ 30 µg/mL)
Compound: CC(C)C[C@H](NC(=O)[C@H](CCCCN)NC(=O)[C@H](CC(C)C)NC(=O)[C@H](CC(C)C)NC(=O)[C@H](CC(C)C)NC(=O)[C@H](CC(C)C)NC(=O)[C@H](CC(C)C)NC(=O)[C@H](CCCCN)NC(=O)[C@H](CC(C)C)NC(=O)[C@@H](N)CCCCN)C(=O)N[C@@H](CCCCN)C(N)=O [KLKLLLLLKLK]

MIC [28]: 23.9 µM (≈ 62.5 µg/mL)
MIC (Staphylococcus aureus): 12.2 µM (≈ 32 µg/mL)
MIC [29]: 12.2 µM (≈ 32 µg/mL)
MIC [30]: 12.2 µM (≈ 32 µg/mL)
MIC [31]: 3.05 µM (≈ 8 µg/mL)
MIC [32]: 12.2 µM (≈ 32 µg/mL)
Compound: CC[C@H](C)[C@H](NC(=O)[C@H](Cc1ccccc1)NC(=O)CNC(=O)CNC(=O)[C@H](CO)NC(=O)[C@H](Cc1ccccc1)NC(=O)[C@H](Cc1c[nH]c2ccccc12)NC(=O)[C@H](CCCN=C(N)N)NC(=O)[C@H](Cc1c[nH]c2ccccc12)NC(=O)[C@H](CCCN=C(N)N)NC(=O)[C@H](Cc1c[nH]c2ccccc12)NC(=O)[C@@H](N)CCCN=C(N)N)C(=O)N[C@@H](CCCCN)C(=O)N[C@@H](Cc1cnc[nH]1)C(=O)N[C@@H](Cc1ccccc1)C(=O)N[C@H](C(=O)N[C@@H](Cc1cnc[nH]1)C(=O)N[C@@H](CCCN=C(N)N)C(=O)N[C@@H](Cc1ccccc1)C(N)=O)[C@@H](C)CC [RWRWRWFSGGFIKHFIHRF]
